# From patent US7115604B2, “Method for treating erectile dysfunction” (Orion Corporation, priority 2000, dated 2006)
# Test system: NYHA III heart failure patients, who had not had erections for several years
# Assay: Clinical data: levosimendan infusion in heart failure patients with erectile dysfunction
# Assay type: in vivo, man
# Protocol: Clinical Data Two NYHA III heart failure patients, who had not had erections for several years were treated with levosimendan. Patient I was exposed to 0.05 μg/kg/min continuous infusion of levosimendan for 7 days.
# [1] = Patient I, 0.05 μg/kg/min continuous infusion for 7 days
compound,measurement,setting,value
"CC1CC(=O)NN=C1c1ccc(NN=C(C#N)C#N)cc1 (single isomer, unassigned; (-)) [levosimendan, (−)-[[4-(1,4,5,6-tetrahydro-4-methyl-6-oxo-3-pyridazinyl)phenyl]hydrazono]propanedinitrile]",erections during the study,[1],erections in the mornings during the whole study
same,time to reported erections after starting the infusion,[1],1 days
same,erections reported,"Patient II, 0.1 μg/kg/min continuous infusion for 2 days",reported erections
